We go through 85 molecules from a melting point compilation (Tetko et al.; mined from patent text by program, amines drawn as free bases though some values may be those of a salt).

For orientation: melting point means the temperature, or range, at which the solid turns liquid. For the molecule `O=c1c(Cl)cn(-c2cc3[nH]c(=O)c(=O)[nH]c3cc2[N+](=O)[O-])cc1Cl`, the melting point is greater than 300 °C. `CC(C)(C)c1cc(-c2c(NC(=O)Nc3ccc(F)cc3F)c(=O)oc3ccc(Cl)cc23)cc(C(C)(C)C)c1O` returned a melting point of 244 to 246 °C. As for `O[C@H]1CCC[C@H]1Oc1cccc2onc(OCC3CCN(CC4(O)CCOCC4)CC3)c12` (relative stereo), the melting point was found to be 141 °C. Regarding `CCCCC(CC(=O)Nc1cc(C(N)=O)ccc1C(C)(C)C)c1ccc(OCCCS(=O)(=O)CCC)cc1OC` (stereo not given), the melting point was 108 to 128 °C. `CC(C)[C@H](NC(=O)N(C)Cc1ccccn1)C(=O)O` had a melting point of 145 °C. `Cc1cccc(C)c1N1CCN(CCNc2cnn(C)c(=O)c2Cl)CC1` registered a melting point of 235 to 242 °C. The result for `O=C(OCC(=O)N1CCCC1=O)c1ccccc1` reads 83 to 84 °C. `CCCCCCCCCCCCCCC[C@@H](O)[C@@H](NCc1ccccc1)C(=O)O`: the melting point is 132 °C. To `CC(=O)c1oc2ccc(Br)cc2c1NC(=O)c1cnoc1C` belongs 206 to 208 °C; to `CCCCCCCCNP(N)(N)=O`, 102 to 114 °C; to `O=C(O)c1ccc(-c2cc([N+](=O)[O-])ccc2F)cc1`, greater than 280 °C. Take `Fc1ccc2c(C3CCN(CCC4COc5ccccc5O4)CC3)noc2c1` (stereo not given): the melting point was in the range of 112 to 113 °C. With `CCC(C)(C)c1cc(C(=O)CI)cc(C(C)(C)CC)c1O`, the melting point was in the range of 76 to 77 °C. For the molecule `CC(C)(C)CCN[C@@H](CC(=O)O)C(=O)O`, the melting point fell in the range of 184 to 186 °C. `CCCCC(=N)OCC` showed a melting point of 89 to 91 °C. `CCn1ncc2c3onc(-c4cccc(Cl)c4)c3cnc21`: the melting point lay within 178 to 179 °C. Molecule `Nc1ccc2ncnc(Nc3ccc(OCc4ccccc4)cc3)c2c1` returned a melting point of 173 to 175 °C. To `CC(=O)Nc1cnc(-c2cc(Cl)cc(Cl)c2Cl)c(N)n1` belongs 200 to 203 °C. The result for `CNC(=O)NS(=O)(=O)c1cc(CCNC(=O)c2cc(C(C)(C)C)ccc2OC)ccc1OC` reads 209 to 212 °C. In the case of `O=C(CCCCN1CCCC1)NNC(=O)N1Cc2ccccc2Oc2ccc(Cl)cc21`, the melting point was in the range of 133 to 135 °C. The molecule `Cc1ccc(C(=O)NC(CF)NC(=S)Nc2cccc([N+](=O)[O-])c2)cc1` (stereo not given) gave a melting point of 148 to 155 °C.

`CCCCCC(Sc1ccc(OC)cc1)C(=O)O` (stereo not given) had a melting point of 90 to 95 °C. The result for `CCn1c([N+](=O)[O-])cnc1C=CN(C)C` reads 124 to 125 °C; that for `COCN1C(=O)N(c2ccc(C#N)c(OC)c2)C(=O)C1(C)c1ccc(O)cc1` (stereo not given), 141 °C; that for `CCOC(=O)C1NC(C(=O)O)c2[nH]c3cccc(OCc4cccc(Cl)c4)c3c2C1COC` (stereo not given), 178 to 179 °C. Turning to `CC(C)(C)OC(=O)Nc1ccc2c(c1)OCC(=O)N2`, the melting point was in the range of 200 to 203 °C. As for `CC(=O)Nc1ccccc1N1CCc2ccccc21`, the melting point lay in the range of 125 to 128 °C. With `OC(c1ccc2c(c1)COCO2)c1cn(C(c2ccccc2)(c2ccccc2)c2ccccc2)cn1` (stereo not given), the melting point fell in the range of 165 to 167 °C. With `COC(=O)c1cc2cc3c(cc2[nH]1)OCC(=O)N3`, the melting point was in the range of 188 to 196 °C. The result for `COc1cc(COc2nn(C)cc2C(N)=O)ccc1OCc1nc(-c2ccccc2)oc1C` reads 168 to 169 °C; that for `CCOCc1nc2c(N)nc(C)c(C)c2n1CCCON=C(C)C`, 123 to 125 °C; that for `CCCCS(=O)(=O)NC1Cc2ccc(C3=NNC(=O)CC3)cc2C1` (single isomer, unassigned; (+)), 173 to 174 °C.

`CC1=C(C)C(=O)N(c2ccc(Cl)c(Cl)c2)C1=O` registered a melting point of 188 °C.

In the case of `CCCn1c(=O)n(-c2ccc3c(c2)OCO3)c2ncccc21`, the melting point fell in the range of 112 to 114 °C. With `COc1cc(OC)cc(S(=O)(=O)c2ccc([N+](=O)[O-])cc2)c1`, the melting point is 150 to 152 °C. Molecule `CCOC(=O)c1c(CN2CCSCC2)nc2cc(OC)c(OC)cc2c1-c1ccc(OC)c(OC)c1` came in with a melting point of 148 to 149 °C.

As for `Cc1cc([C@H]2CN3C(=O)N(c4cc(Cl)nc(Cl)c4)C(=O)[C@]3(Cc3ccc(OC(F)(F)F)cc3)C2)c(C)[nH]1`, the melting point came out at 112 °C. With `CN1C(=O)c2cccnc2Nc2ncccc21`, the melting point lay within 230 to 232 °C. In turn, `O=C(O)CCCCOc1ccc2oc3ccccc3c(=O)c2c1` gave a melting point of 151 to 152 °C. For `O=C(Nc1ccc(Oc2ccnc(NCC3CC3)n2)c2ccccc12)c1cc(F)cc(N2CCCCC2)c1`, the melting point is 117 to 119 °C. Consider `Cc1c(CC(=O)O)c2cc(O)ccc2n1C(=O)c1ccc(F)cc1`, for which the melting point was in the range of 180 to 182 °C. The molecule `CC(C)(C)c1ccc2c(c1)[C@H]1Cc3ccccc3[C@H]1N2` (relative stereo) showed a melting point of 103 to 105 °C. As to `COc1cc2c(cc1OC)C(NC=O)C(c1ccc3c(c1)OCO3)CC2` (stereo not given), the melting point lay in the range of 150 to 190 °C. For the molecule `Cc1cccc(NC(=O)NC2N=C(c3ccccc3F)c3ccccc3N(Cc3nccc4c3CCCC4)C2=O)c1` (racemic), the melting point lay within 207 to 210 °C. To `C#CCOc1cc(Oc2ccccc2Cl)ncn1` belongs 76.2 °C.

`CC(C)n1cc(-c2nc(C(N)=O)c(N)nc2-c2cccc(F)c2)ccc1=O` came in with a melting point of 259 °C. In turn, `COc1ccc(C(=O)c2cc(C(C)(C)C)c(O)c(C(C)(C)C)c2)cc1` displayed a melting point of 141 to 142 °C. In the case of `COc1ccc(CCN2CCC(NC(C)=O)CC2)cc1OC`, the melting point lay in the range of 152 to 154 °C.

`CCCCOc1ncc(C(C)=O)cc1-c1nc2c(CC)n(CC3CC3)nc2c(=O)[nH]1`: the melting point lay within 184 to 185 °C.

For `O=C(c1ccc(Cl)cc1)N1CCc2cc(S(=O)(=O)n3cc(-c4ccccc4)[nH]c3=O)ccc21`, the melting point lay in the range of 220 to 221 °C. In turn, `C#CCN(Cc1cc2c(=O)n(C)c(CN3CCC(O)CC3)nc2cc1Cl)c1ccc(C(=O)OC(C)(C)C)cc1` registered a melting point of 208 to 210 °C. The result for `Cn1ccc2c(-n3cc(C(=O)NC(=N)N)c4cccnc43)ncnc21` reads greater than 260 °C. With `CC(=O)Nc1cccc(NC(=O)C=C2CC(C(=O)O)Nc3cc(Cl)cc(Cl)c32)c1` (racemic), the melting point was in the range of 190 to 193 °C.

Molecule `COc1ccc([C@H]2SC(c3ccccc3)=C(C)N(CCN(C)C)C(=O)[C@H]2OC(C)=O)cc1` displayed a melting point of 90 to 92 °C.

`C#CCOc1cc(C(=O)O)cc(S(N)(=O)=O)c1-c1ccccc1` had a melting point of 154 to 155 °C. To `O=C1C(=O)N(c2ccc(F)cc2)c2ccc(F)cc21` belongs 180 to 190 °C; to `CC(=O)OCC1OC(n2ccc3c(Br)cccc32)C(OC(C)=O)C(OC(C)=O)C1OC(C)=O` (stereo not given), 166 to 167 °C. To `Nc1nc2ccccc2c2c1nc(C1CCCC1)n2CCOc1ccccc1` belongs 216 to 218 °C; to `CSc1ccc2c(=O)n([C@H](C)[C@](O)(Cn3cncn3)c3ccc(F)cc3F)cnc2c1`, 152 to 153 °C; to `CCOP(=O)(O)Cc1ccc(NC(=O)N2CCN(c3ccc(NC(=O)Nc4cc(C)ccc4OC)cc3)CC2)c(C)c1`, 165 to 173 °C.

In the case of `O=C(O)C1=Cc2cc(Cl)c(C(F)(F)F)cc2OC1C(F)(F)F` (stereo not given), the melting point is 181 to 182 °C. As to `O=S1N=C(NCCCN(Cc2ccc(F)cc2)c2ccccn2)C(NCc2ccncc2)=N1` (stereo not given), the melting point was in the range of 160 to 163 °C. To `COc1ccc(C(=O)c2ccc(OC)cc2F)c(C)c1` belongs 88 to 90 °C; to `CCCCCN1C(=O)C2(COc3cc4c(cc32)OCO4)c2c(C(=O)Nc3cccc(OC)c3)cccc21` (stereo not given), 173 to 175 °C; to `CCOC(=O)c1nn(-c2ccccc2C)c(=O)c2c(N)scc12`, 209 to 210 °C. In turn, `CCOCc1nc2c(N)nc3ccc(OCc4ccccc4)cc3c2n1CCCCN(C(N)=O)c1ccccc1` returned a melting point of 186 to 188 °C. Turning to `Cc1nc(C[C@H]2OC[C@H](c3ccc(F)cc3)CO2)nc(C(=O)NCC(=O)O)c1O`, the melting point amounted to 209 °C. Molecule `CCCOc1ccc(-c2ccc3c(c2)C=C(C(=O)Nc2ccc(CN(C)C4CCOCC4)cc2)CCS3(=O)=O)cc1OCCC` came in with a melting point of 206 to 208 °C. Consider `CN1c2ccc(S(=O)(=O)N3CCOCC3)cc2S(=O)(=O)NC1C1CCCCC1` (stereo not given), for which the melting point lay within 207 to 210 °C. To `CCOc1cc2cc(C3=NNC(=O)CC3C)sc2cc1OCC` (stereo not given) belongs 170 to 171 °C; to `O=C1NC(=O)C2(c3cc(Oc4ccc(O)cc4)c(Cl)cc3F)CCCCC12` (stereo not given), 117 to 120 °C. With `NC(=O)c1cc(OCCNCC(O)COc2ccc(-c3nc(C(F)(F)F)c[nH]3)cc2)ccc1O` (stereo not given), the melting point is 155 to 158 °C. In turn, `CNC(=C[N+](=O)[O-])NCCc1nnc(NCCCOc2cccc(CN3CCCCC3)c2)n1C` showed a melting point of 110 to 112 °C. `Nc1ncccc1CNC1CCN(Cc2ccccc2)CC1`: the melting point was 114 °C.

Take `c1cn2nc(SCCOC3CCCCO3)ccc2n1` (stereo not given): the melting point lay in the range of 60 to 62 °C. With `Cc1c(Cc2nc3n(-c4c(Cl)cc(Cl)cc4Cl)[nH]c(C(C)C)c-3c(=O)n2)cccc1NC(=O)CCl`, the melting point was in the range of 237 to 238 °C. Molecule `Cc1cccc(-c2nc(N)sc2-c2ccc(F)c(-c3ccc(S(C)(=O)=O)cc3)c2)n1` displayed a melting point of 202 to 204 °C. Molecule `Cc1nc2c(s1)-c1nc(NC(=O)c3ccccc3)ncc1CC2` returned a melting point of 229 to 231 °C. `O=C(Cc1ccccc1)Nc1cnc2ccccc2c1O` had a melting point of 253 to 255 °C. `COc1cccc2c3c([nH]c12)CCNC3=O` showed a melting point of 255 to 258 °C.

`CNC(=O)OC(C)C(=O)Nc1ccc(C2=NNC(=O)CC2C)cc1` (stereo not given): the melting point was in the range of 96 to 98 °C. In turn, `CCCCCCCCCCOC1CCC(=O)N1` (stereo not given) gave a melting point of 44 to 46 °C.

`CN(C)CCNc1ccc(CNS(C)(=O)=O)c2sc3ccccc3c(=O)c12`: the melting point lay in the range of 126 to 127 °C. `CCCCOc1cc(/C=C(\OCC)C(=O)O)ccc1OCCc1ccc(OS(C)(=O)=O)c(OC)c1`: the melting point was found to be 97 °C.

Molecule `OC(c1ccccc1)C1CCCN1` (stereo not given) came in with a melting point of 110 °C.
